Test results reported in publication PMC12973313 (Chemical Science, 2026).
Where “and” joins values, the source holds several entries; their conditions need not be identical. Equal entries are not always repeated. Where two headings read alike, the source gives them in different places.

Key:
[1] = design: method as in PMID 29633393; details: H2O 5% EtOH, cited from earlier work
[2] = H2O 5% EtOH, 5.56 mM; cited from earlier work
[3] = design: method as in PMID 29633393; details: D2O 5% EtOH, 5.56 mM, 298 K; cited from earlier work
[4] = design: method as in PMID 29633393; details: equal K/dimerization model, DMSO-d6 0.5% H2O; cited from earlier work
[5] = Metabolic stability in liver microsomes; assay type: in vitro ADME, human
Procedure: (§1) Following this, the metabolic stability of 9 was determined against mouse, rat, and human liver microsomes. […] Within this assay the stability of the intact parent compound is monitored with respect to time, during incubation at 37 °C in the presence and absence of the co-factor NADPH – required for cytochrome p450 activity.
(§2) Metabolic Stability in Rat, Mouse and Human Liver Microsomes:
The metabolic stability of compounds at a concentration of 1 µM, in rat, mouse and human liver microsomes (BD Gentest, Franklin Lakes NJ) was measured following incubation with hepatic microsomes (0.5 mg of protein / mL) in the presence and absence of cofactor (NADPH) at 37 °C. Aliquots of each incubation were removed at 0.5, 5, 15, 30 and 60 minutes. […]
Samples were analysed using a Shimadzu Shimadzu Nexera LC Binary Gradient LC-30AD (Shimadzu Inc, Kyoto), coupled to a Sciex 5500 mass spectrometer (AB Inc., Illinois) for rat and mouse microsomes and a Sciex 6500+ for human microsomes. […]
The bi-directional permeability in Caco-2 cell lines was determined by seeding cells onto an HTS Transwell plate. […] To assess monolayer integrity the transepithelial electrical resistance (TEER) across the monolayer was measured using Millicell Epithelial volt-ohm meter prior to assay and Lucifer yellow (LY) fluorescence measurement post-assay. […]

[6] = Metabolic stability in liver microsomes; assay type: in vitro ADME, rat
Procedure: as §1, §2
The metabolic stability of compounds at a concentration of 1 µM, in rat, mouse and human liver microsomes (BD Gentest, Franklin Lakes NJ) was measured following incubation with […]
(NADPH) at 37 °C. Aliquots of each incubation were removed at 0.5, 5, 15, 30 and 60 minutes. The reaction was stopped by the addition of cold acetonitrile containing analytical […]
Samples were then centrifuged at 3,220 g for 40 minutes. The supernatant was aliquoted and added to ultra-pure H2O in a 1:1 ratio in preparation for LC-MS/MS analysis.
Incubations were conducted in duplicate; control incubations (substituting PBS for NADPH) were conducted simultaneously.
Samples were analysed using a Shimadzu Shimadzu Nexera LC Binary Gradient LC-30AD (Shimadzu Inc, Kyoto), coupled to a Sciex 5500 mass spectrometer (AB Inc., Illinois) for rat and mouse microsomes and a Sciex 6500+ for human microsomes. Separation achieved using an XSelect HSS T3 column (2.5µm, 50 x 2.1 mm) (Waters Ltd., Wilmslow) at a temperature of 40°C and a binary mobile phase gradient at a flow rate of 0.7 mL/min. Initial […]
(0.1% formic acid in acetonitrile).
0.5 minutes and then immediately returned to initial conditions. Sample analysis was by electrospray ionisation combined with multiple reaction monitoring in positive ion mode.
The ionspray voltage was 5500V.
Bi-directional Permeability in Caco-2 Cell Line: […]

## O=C(O)CNC(=O)Nc1ccc(C(F)(F)F)cc1 [SSA 1]
[1]; approx. 291 K
  CAC (mM): 11.2 (ref. [30]) mM
[1]
  Surface tension (mN m^-1): 39.33 (ref. [30]) mN m^−1
[2]
  dH (nm), DLS peak maxima: 220 nm and 220 (ref. [30]) nm
[3]
  Q NMR (%) SSA anion: 68 (ref. [30]) %
[4]
  Kdim (M^-1): 41 (±1.3%)[30] M^−1

## O=C(Nc1ccc(C(F)(F)F)cc1)N[C@H](Cc1ccccc1)C(=O)O [SSA 9]
[5]; human microsomes
  microsomal CLint at 1 µM: < 7.5 µL/min/mg
[5]; human, 1 µM, 0.5 mg protein/mL, read-out: In vitro t1/2
  half-life at 1 µM: > 3.08 h
[6]; liver microsomes, rat microsomes
  microsomal CLint at 1 µM: < 7.5 µL/min/mg
[6]; rat
  Hepatic Extraction Ratio (ER): < 0.21
  Predicted Hepatic CLH: < 14.42 mL/min/kg
[6]; rat, 1 µM, 0.5 mg protein/mL
  In vitro t1/2: > 3.0797 h
[6]; rat, +Cofactors
  Remaining percentage (%) 0.5 min: 100.00%
  Remaining percentage (%) 5 min: 107.16%
  Remaining percentage (%) 15 min: 104.62%
  Remaining percentage (%) 30 min: 102.68%
  Remaining percentage (%) 60 min: 102.41%
[6]; rat, -Cofactors
  Remaining percentage (%) 0.5 min: 100.00%
  Remaining percentage (%) 60 min: 107.67%
[6]; rat, liver microsomes, rat, 1 µM, 0.5 mg protein/mL, read-out: In vitro t1/2
  half-life at 1 µM: > 3.08 h
[6]; rat, liver microsomes, read-out: Scale-up CLint
  CLint scaled at 1 µM: < 18.3 mL/min/kg
